From patent US20100234377A1 (priority 2007, published 2010) come the findings set out here.

Read-outs that look alike come from different tables or passages of the source.

The term IC50 denotes the midpoint of a concentration-inhibition curve.

Series [1] deals with T1, human Prostaglandin D Synthase (GST2) (Homo sapiens, UniProt O60760).
T1 construct: the open reading frame of human Prostaglandin D Synthase was amplified from cDNA; made in house; host or cells: E. coli TOP10F'
Briefly: Homogeneous biochemical assay of human Prostaglandin D Synthase (GST2) based on its glutathion-S-transferase activity (GSH conjugation to monochlorobimane, fluorescence). In a few lines:
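N-His-tagged human PGD synthase from E. coli, assayed via its GST activity: GSH conjugation to monochlorobimane in 50 mM MES/KOH pH 6.1, 0.7 mM GSH, 2 mM MgCl2. Compounds at final picomolar to triple-digit micromolar concentrations.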

The nature of series [2]: Mouse microsomal metabolism assay. Format: in vitro ADME. The following applies: mouse hepatic microsomes, 37° C., phosphate buffer pH 7.4, NADPH regenerating system; for half-life: liver microsomes, read-out: Mouse t½. How it is done: Selected GST2 Inhibitors from Formula I Assessed in Mouse Microsomal Metabolism Assay
Selected GST2 inhibitors of General Formula (I) were screened in a mouse hepatic microsome assay to determine microsomal metabolism.
Test Articles were prepared in 50% acetonitrile.
Mouse hepatic microsomes supplied by BD GenTest Inc or an equivalent reputable supplier.
Test Articles are added to incubation plates containing phosphate buffer pH 7.4 and microsomes at a suitable protein concentration. Incubation plates are placed on a shaking water bath at 37° C. for 5 minutes pre-incubation. An aliquot of the reaction mixture is taken and added to acetonitrile (3:1). This is designated time […]. NADPH regenerating system in phosphate buffer pH 7.4 is added to initiate reactions. Aliquots from the incubation wells are taken at a number of time points and added to acetonitrile. Control incubations contained no microsomes or compounds with known microsomal stabilities. Samples were subject to centrifugation to remove denatured protein and the supernatants were analysed by LCMS.
Half lives were calculated from the log vs time transformed data according to the following equation: […]
Where λ is the slope of the linear regression line under first order (Test Article concentration <Km) conditions.
A general note: Liver microsomes are a subcellular fraction often used to study metabolism.

Setting [3] is: given beside the compound name in Examples 1 to 167, read-out: Potency Range (GST2 IC50).
[4] abbreviates: Table 2, comparative examples, read-out: GST2 inhibition IC50.

T1 sequence (O60760 whole entry): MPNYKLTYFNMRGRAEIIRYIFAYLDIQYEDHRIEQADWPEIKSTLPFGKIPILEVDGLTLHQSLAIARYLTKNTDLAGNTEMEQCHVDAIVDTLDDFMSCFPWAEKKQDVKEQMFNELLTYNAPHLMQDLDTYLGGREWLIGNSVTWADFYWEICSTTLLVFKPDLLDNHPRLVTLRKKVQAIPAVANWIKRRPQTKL

As to “4-(2-Fluoro-4-{[4-(3-fluoro-benzoyl)-piperazine-1-carbonyl]-amino}-phenyl)-piperazine-1-carboxylic acid isopropyl ester [Compound 50]”, the IC50 in series [1] (setting [3]) was in the range of 11 to 100 nM. For the same compound, the “Mouse t½” value in series [2] was greater than 60 min.

For the compound `O=C(Nc1ccc(OC(F)(F)F)cc1)N1CCN(C(=O)c2cccc(F)n2)CC1` [Compound 21, 4-(6-Fluoro-pyridine-2-carbonyl)-piperazine-1-carboxylic acid (4-trifluoromethoxy-phenyl)-amide], the IC50 in series [1] (setting [3]) lay in the range of 101 to 1000 nM. The half-life in series [2] is greater than 60 min.

In the case of `O=C(Nc1nc2cc(Cl)ccc2o1)N1CCN(C(=O)c2cccc(F)c2)CC1` [Compound 39, 4-(3-Fluoro-benzoyl)-piperazine-1-carboxylic acid (5-chloro-benzooxazol-2-yl)-amide], the IC50 in series [1] (setting [3]) lay in the range of 101 to 1000 nM. For the same compound, the half-life in series [2] is greater than 60 min.

`CC(C)NC(=O)N1CCN(c2ccc(NC(=O)N3CCN(C(=O)c4cccc(F)c4)CC3)cc2F)CC1` [Compound 52, 4-(3-fluorobenzoyl)-N-{3-fluoro-4-[4-(isopropylcarbamoyl)piperazin-1-yl]phenyl}piperazine-1-carboxamide]: in series [1] (setting [3]), the IC50 lay in the range of 11 to 100 nM. Also, the half-life in series [2] is greater than 60 min.

`CN1CCN(c2ccc(NC(=O)N3CCN(C(=O)c4cccc(F)c4)CC3)cc2F)CC1` [Compound 60, 4-(3-Fluoro-benzoyl)-piperazine-1-carboxylic acid [3-fluoro-4-(4-methyl-piperazin-1-yl)-phenyl]-amide]: the IC50 in series [1] (setting [3]) lay in the range of 101 to 1000 nM. Moreover, in series [2], the half-life amounted to 58.7 min.

As to `O=C(Nc1ccc(Cl)nc1)N1CCN(C(=O)c2cccc(F)c2)CC1` [Compound 63, 4-(3-Fluoro-benzoyl)-piperazine-1-carboxylic acid (6-chloro-pyridin-3-yl)-amide], the IC50 in series [1] (setting [3]) is 101 to 1000 nM. Besides, the half-life in series [2] is greater than 60 min.

With `O=C(Nc1ccc(C(=O)N2CCOCC2)cc1)N1CCN(C(=O)c2cccc(F)c2)CC1` [Compound 101, 4-(3-Fluoro-benzoyl)-piperazine-1-carboxylic acid [4-(morpholine-4-carbonyl)-phenyl]-amide], the IC50 in series [1] (setting [3]) lay within 101 to 1000 nM. The half-life in series [2] is greater than 60 min.

As to `NC(=O)c1cccc(NC(=O)N2CCN(C(=O)c3cccc(F)c3)CC2)c1` [Compound 158, 4-(3-Fluoro-benzoyl)-piperazine-1-carboxylic acid (3-carbamoyl-phenyl)-amide], the IC50 in series [1] (setting [3]) was 101 to 1000 nM.

`O=C(Nc1cccc(-c2ncn[nH]2)c1)N1CCN(C(=O)c2cccc(F)c2)CC1` [Compound 159, 4-(3-Fluoro-benzoyl)-piperazine-1-carboxylic acid [3-(2H-[1,2,4]triazol-3-yl)-phenyl]-amide]: the 50% inhibitory concentration (IC50) in series [1] (setting [3]) fell in the range of 101 to 1000 nM.

For `NC(=O)c1cc(NC(=O)N2CCN(C(=O)c3cccc(F)c3)CC2)ccc1F` [Compound 160, 4-(3-Fluoro-benzoyl)-piperazine-1-carboxylic acid (3-carbamoyl-4-fluoro-phenyl)-amide], the IC50 in series [1] (setting [3]) is 101 to 1000 nM.

In the case of `O=C(Nc1ccc(F)c(-c2ncn[nH]2)c1)N1CCN(C(=O)c2cccc(F)c2)CC1` [Compound 161, 4-(3-Fluoro-benzoyl)-piperazine-1-carboxylic acid [4-fluoro-3-(2H-[1,2,4]triazol-3-yl)-phenyl]-amide], in series [1] (setting [3]), the IC50 was 101 to 1000 nM.

As to `CC(C)c1noc(-c2cccc(NC(=O)N3CCN(C(=O)c4cccc(F)c4)CC3)c2)n1` [Compound 162, 4-(3-Fluoro-benzoyl)-piperazine-1-carboxylic acid [3-(3-isopropyl-[1,2,4]oxadiazol-5-yl)-phenyl]-amide], the 50% inhibitory concentration (IC50) in series [1] (setting [3]) was in the range of 11 to 100 nM.

As for `CC(C)c1noc(-c2cc(NC(=O)N3CCN(C(=O)c4cccc(F)c4)CC3)ccc2F)n1` [Compound 163, 4-(3-Fluoro-benzoyl)-piperazine-1-carboxylic acid [4-fluoro-3-(3-isopropyl-[1,2,4]oxadiazol-5-yl)-phenyl]-amide], the IC50 in series [1] (setting [3]) was in the range of 11 to 100 nM.

As for `O=C(Nc1ccc(C(F)(F)F)cc1)N1CCN(C(=O)c2ccccc2)CC1` [Compound 164, 4-Benzoyl-piperazine-1-carboxylic acid (4-trifluoromethyl-phenyl)-amide], the IC50 in series [1] (setting [3]) fell in the range of 11 to 100 nM.

For the compound `O=C(Nc1ccc(C(F)(F)F)cc1)N1CCN(C(=O)c2cccc(Cl)c2)CC1` [Compound 165, 4-(3-Chloro-benzoyl)-piperazine-1-carboxylic acid (4-trifluoromethyl-phenyl)-amide], the 50% inhibitory concentration (IC50) in series [1] (setting [3]) is 101 to 1000 nM.

For the compound `O=C(Nc1cccc(Nc2ccccc2)c1)N1CCN(C(=O)c2cccc(F)c2)CC1` [Compound 166, 4-(3-Fluoro-benzoyl)-piperazine-1-carboxylic acid (3-phenylamino-phenyl)-amide], in series [1] (setting [3]), the IC50 was 101 to 1000 nM.

Take `O=C(Nc1cccc(Nc2ccc(F)cc2)c1)N1CCN(C(=O)c2cccc(F)c2)CC1` [Compound 167, 4-(3-Fluoro-benzoyl)-piperazine-1-carboxylic acid [3-(4-fluoro-phenylamino)-phenyl]-amide]: the IC50 in series [1] (setting [3]) was in the range of 101 to 1000 nM.

For the compound `O=C(Nc1ccc(F)nc1)c1cccc(C(=O)N2CCN(C(=O)Nc3ccc(F)cc3)CC2)c1` [Compound XVIII, 4-[3-(6-Fluoro-pyridin-3-ylcarbamoyl)-benzoyl]-piperazine-1-carboxylic acid (4-fluoro-phenyl)-amide, reference compound], in series [1] (setting [4]), the IC50 came out at 19500 nM.

With `O=C(Nc1ccc(F)cc1)N1CCN(C(=O)c2cccc(NS(=O)(=O)c3ccccc3)c2)CC1` [Compound XX, 4-(3-Benzenesulfonylamino-benzoyl)-piperazine-1-carboxylic acid (4-fluoro-phenyl)-amide, reference compound], the IC50 in series [1] (setting [4]) was found to be 19600 nM.

Take `NC(=O)c1ccccc1C(=O)N1CCN(C(=O)Nc2ccc(F)cc2)CC1` [Compound XXI, 4-(2-Carbamoyl-benzoyl)-piperazine-1-carboxylic acid (4-fluoro-phenyl)-amide, reference compound]: the IC50 in series [1] (setting [4]) came out at 16800 nM.

As to `O=C(Nc1ccc(F)cc1)N1CCN(C(=O)c2ccccc2CO)CC1` [Compound XXIII, 4-(2-Hydroxymethyl-benzoyl)-piperazine-1-carboxylic acid (4-fluoro-phenyl)-amide], in series [1], the IC50 is 16200 nM.

On to `COC(=O)c1ccccc1C(=O)N1CCN(C(=O)Nc2ccc(F)cc2)CC1` [XIII, 2-[4-(4-Fluoro-phenylcarbamoyl)-piperazine-1-carbonyl]-benzoic acid methyl ester, reference compound], for which the IC50 in series [1] (setting [4]) was determined as 28200 nM.

On to `O=C(Nc1ccc(F)cc1)N1CCN(C(=O)c2ccccc2Oc2ccccc2)CC1` [XIV, 4-(2-Phenoxy-benzoyl)-piperazine-1-carboxylic acid (4-fluoro-phenyl)-amide, reference compound], for which the IC50 in series [1] (setting [4]) came to 180000 nM.

Consider `O=C(Nc1ccc(F)cc1)N1CCN(C(=O)c2cccc(F)n2)CC1` [XXIII, 4-(6-Fluoro-pyridine-2-carbonyl)-piperazine-1-carboxylic acid (4-fluoro-phenyl)-amide], for which the half-life in series [2] is greater than 60 min.

On to `O=C(Nc1ccc(N2CCOCC2)nc1)N1CCN(Cc2cccc(F)c2)CC1` [XXIV, 4-(3-Fluoro-benzyl)-piperazine-1-carboxylic acid (6-morpholin-4-yl-pyridin-3-yl)-amide], for which the half-life in series [2] was determined as 31.4 min.

Turning to `O=C(Nc1ccc(F)cc1)N1CCN(Cc2cccc3c2OC(F)(F)O3)CC1` [XXIX, 4-(2,2-Difluoro-benzo[1,3]dioxol-4-ylmethyl)-piperazine-1-carboxylic acid (4-fluoro-phenyl)-amide], the half-life in series [2] was 12.1 min.

For `O=C(Nc1ccc(N2CCOCC2)nc1)N1CCN(Cc2ccccc2)CC1` [XXV, 4-Benzyl-piperazine-1-carboxylic acid (6-morpholin-4-yl-pyridin-3-yl)-amide], in series [2], the half-life amounted to 27.6 min.

In the case of `O=C(Nc1ccc(F)cc1)N1CCN(Cc2ccccc2O)CC1` [XXVI, 4-(2-Hydroxy-benzyl)-piperazine-1-carboxylic acid (4-fluoro-phenyl)-amide], the half-life in series [2] amounted to 21.9 min.

Regarding `O=C(Nc1ccc(N2CCNCC2)c(F)c1)N1CCN(Cc2cccc(F)n2)CC1` [XXVII, 4-(6-Fluoro-pyridin-2-ylmethyl)-piperazine-1-carboxylic acid (3-fluoro-4-piperazin-1-yl-phenyl)-amide], the half-life in series [2] was determined as 20.9 min.

As to `O=C(Nc1ccc(N2CCOCC2)nc1)N1CCN(Cc2cc(F)cc(F)c2)CC1` [XXVIII, 4-(3,5-Difluoro-benzyl)-piperazine-1-carboxylic acid (6-morpholin-4-yl-pyridin-3-yl)-amide], the half-life in series [2] worked out at 15.5 min.

Regarding `O=C(Nc1ccc(F)cc1)N1CCN(Cc2cccc(F)c2)CC1` [XXX, 4-(3-Fluoro-benzyl)-piperazine-1-carboxylic acid (4-fluoro-phenyl)-amide], the half-life in series [2] stood at 10.6 min.

With `Cc1ccccc1CN1CCN(C(=O)Nc2ccc(F)cc2)CC1` [XXXI, 4-(2-Methyl-benzyl)-piperazine-1-carboxylic acid (4-fluoro-phenyl)-amide], the half-life in series [2] turned out to be 4.4 min.
